What is called IC50 is the point on the concentration scale where inhibition reaches its midpoint. A lower IC50 goes with higher potency.

Data on 54 molecules can be found in ChEMBL document CHEMBL1138038, “Sequence-based design and discovery of peptide inhibitors of HIV-1 integrase: insight into the binding mode of the enzyme” (J Med Chem, 2006).

Residues, ends and D or L forms follow the SMILES beside them. Some results are limits rather than exact numbers.

Experiment [1] has as its target T1, Human immunodeficiency virus type 1 integrase (Human immunodeficiency virus 1, UniProt Q7ZJM1). Description: Inhibition of wild type HIV1 integrase 3' processing activity.
Experiment [2] deals with T1, Human immunodeficiency virus type 1 integrase. Description: Inhibition of wild type HIV1 integrase strand transfer activity.

T1 sequence (Q7ZJM1 whole entry): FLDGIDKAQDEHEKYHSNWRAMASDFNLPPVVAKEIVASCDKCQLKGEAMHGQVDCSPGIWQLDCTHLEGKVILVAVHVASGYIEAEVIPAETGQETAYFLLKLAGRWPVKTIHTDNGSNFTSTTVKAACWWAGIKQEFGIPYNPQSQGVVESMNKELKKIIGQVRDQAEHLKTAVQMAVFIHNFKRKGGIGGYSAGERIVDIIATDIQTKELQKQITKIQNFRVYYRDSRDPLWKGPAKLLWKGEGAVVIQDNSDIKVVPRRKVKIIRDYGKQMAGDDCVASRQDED

Regarding `CC(C)C[C@@H](NC(=O)[C@@H](CCCCN)NC(=O)[C@@H](CC(C)C)NC(=O)[C@@H](CC(C)C)NC(=O)[C@@H](Cc1ccccc1)NC(=O)[C@@H](Cc1ccc(O)cc1)NC(=O)[C@@H](C)NC(=O)[C@H](N)[C@H](C)O)C(=O)N[C@H](C)C(=O)NCC(=O)N[C@H](CCCN=C(N)N)C(=O)N[C@H](Cc1c[nH]c2ccccc12)C(N)=O`, the IC50 in experiment [1] came out at 65 µM; in experiment [2], 13 µM.
For `CC(C)C[C@@H](NC(=O)[C@@H](C)NC(=O)CNC(=O)[C@@H](CCCN=C(N)N)NC(=O)[C@H](N)Cc1c[nH]c2ccccc12)C(=O)N[C@H](CCCCN)C(=O)N[C@H](CC(C)C)C(=O)N[C@H](CC(C)C)C(=O)N[C@H](Cc1ccccc1)C(=O)N[C@H](Cc1ccc(O)cc1)C(=O)N[C@H](C)C(=O)N[C@@H](C(=O)O)[C@H](C)O`, in that order: 3.5 µM and 4 µM.
For `CC[C@@H](C)[C@@H](NC(=O)[C@@H](CCCCN)NC(=O)[C@@H](CCC(N)=O)NC(=O)[C@@H](CCC(=O)O)NC(=O)[C@H](N)Cc1ccccc1)C(=O)NCC(=O)N[C@H](C)C(=O)N[C@H](Cc1c[nH]c2ccccc12)C(=O)N[C@H](Cc1c[nH]c2ccccc12)C(=O)N[C@@H](CS)C(=O)N[C@H](C)C(=O)O`, in that order: over 1000 µM and over 1000 µM.
For `CC[C@@H](C)[C@@H](NC(=O)CNC(=O)[C@@H](C)NC(=O)[C@@H](Cc1c[nH]c2ccccc12)NC(=O)[C@@H](Cc1c[nH]c2ccccc12)NC(=O)[C@@H](CS)NC(=O)[C@@H](C)N)C(=O)N[C@H](CCCCN)C(=O)N[C@H](CCC(N)=O)C(=O)N[C@H](CCC(=O)O)C(=O)N[C@H](Cc1ccccc1)C(=O)O`, in that order: over 1000 µM and over 1000 µM.
For `CC(C)C[C@@H](NC(=O)[C@@H](CCCCN)NC(=O)[C@@H](CC(C)C)NC(=O)[C@@H](CC(C)C)NC(=O)[C@@H](Cc1ccccc1)NC(=O)[C@@H](Cc1ccc(O)cc1)NC(=O)[C@@H](C)NC(=O)[C@H](N)[C@H](C)O)C(=O)N[C@H](C)C(=O)NCC(=O)N[C@H](CCCN=C(N)N)C(=O)N[C@H](Cc1c[nH]c2ccccc12)C(=O)O`, the IC50 in experiment [1] came to 96 µM; in experiment [2], 16 µM.
For `CC[C@H](C)[C@H](NC(=O)[C@H](CCCCN)NC(=O)[C@H](CCC(N)=O)NC(=O)[C@H](CCC(=O)O)NC(=O)[C@@H](N)Cc1ccccc1)C(=O)NCC(=O)N[C@@H](C)C(=O)N[C@@H](Cc1c[nH]c2ccccc12)C(=O)N[C@@H](Cc1c[nH]c2ccccc12)C(=O)N[C@@H](CS)C(=O)N[C@@H](C)C(=O)O`, the IC50 in experiment [1] and in experiment [2] was over 1000 µM each time.
For `CC(C)C[C@H](NC(=O)[C@H](CCCCN)NC(=O)[C@H](CC(C)C)NC(=O)[C@H](CC(C)C)NC(=O)[C@H](Cc1ccccc1)NC(=O)[C@H](Cc1ccc(O)cc1)NC(=O)[C@H](C)NC(=O)[C@@H](N)[C@@H](C)O)C(=O)N[C@@H](C)C(=O)N[C@@H](C)C(=O)N[C@@H](CCCN=C(N)N)C(=O)N[C@@H](Cc1c[nH]c2ccccc12)C(=O)O`, the IC50 is 118 µM in experiment [1] and 19 µM in experiment [2].
In the same order, the values of `CC(C)C[C@H](NC(=O)[C@H](CCCCN)NC(=O)[C@H](CC(C)C)NC(=O)[C@H](CC(C)C)NC(=O)[C@H](Cc1ccccc1)NC(=O)[C@H](Cc1ccc(O)cc1)NC(=O)[C@H](C)NC(=O)[C@@H](N)[C@@H](C)O)C(=O)N[C@@H](C)C(=O)NCC(=O)N[C@@H](CCCN=C(N)N)C(=O)N[C@@H](Cc1c[nH]c2ccccc12)C(N)=O` are 21 µM and 2.7 µM.
For the molecule `CC(C)C[C@H](NC(=O)[C@H](CCC(N)=O)NC(=O)[C@H](CS)NC(=O)[C@H](CCCCN)NC(=O)[C@H](CC(=O)O)NC(=O)[C@H](CS)NC(=O)[C@H](CO)NC(=O)[C@H](C)N)C(=O)N[C@@H](CCCCN)C(=O)NCC(N)=O` (H-ASCDKCQLKG-NH2), the half-inhibitory concentration (IC50) in experiment [1] and in experiment [2] was over 2000 µM in each case.
For `CC[C@H](C)[C@H](NC(=O)CNC(=O)[C@@H]1CCCN1C(=O)[C@H](CO)NC(=O)[C@H](CS)NC(=O)[C@H](CC(=O)O)NC(=O)[C@@H](NC(=O)[C@H](CCC(N)=O)NC(=O)CNC(=O)[C@@H](N)Cc1cnc[nH]1)C(C)C)C(=O)N[C@@H](Cc1c[nH]c2ccccc12)C(=O)N[C@@H](CCC(N)=O)C(=O)N[C@@H](CC(C)C)C(=O)N[C@@H](CC(=O)O)C(=O)N[C@@H](CS)C(=O)N[C@H](C(=O)N[C@@H](Cc1cnc[nH]1)C(N)=O)[C@@H](C)O` (H-HGQVDCSPGIWQLDCTH-NH2), the IC50 in experiment [1] and in experiment [2] was 1000 µM throughout.
H-AAWWAGIKQEF-OH: the results for the half-maximal inhibitory concentration (IC50) in experiment [1] and in experiment [2] were 277 µM and 311 µM, respectively.
For H-AAYFLLKLAGRW-OH, in that order: 100 µM and 47 µM.
For H-ACAWAGIKQEF-OH, in that order: 33 µM and 34 µM.
In the same order, the values of H-ACGWAGIKQEF-NH2 are 46 µM and 16 µM.
Consider H-ACWAAGIKQEF-OH, for which the IC50 in experiment [1] and in experiment [2] was over 333 µM in each case.
Consider H-ACWGAGIKQEF-NH2, for which the IC50 in experiment [1] and in experiment [2] was over 333 µM throughout.
As to H-ACWWAAIKQEF-OH, the IC50 in experiment [1] turned out to be 90 µM; in experiment [2], 43 µM.
For H-ACWWAG-NH2, in that order: over 100 µM and 60 µM.
For H-ACWWAGAKQEF-OH, in that order: over 333 µM and over 333 µM.
In the same order, the values of H-ACWWAGIAQEF-OH are 62 µM and 55 µM.
For the molecule H-ACWWAGIKAEF-OH, the half-inhibitory concentration (IC50) in experiment [1] and in experiment [2] was over 333 µM in each case.
For H-ACWWAGIKQAF-OH, the IC50 in experiment [1] and in experiment [2] was over 333 µM throughout.
With H-ACWWAGIKQEA-OH, the results for the IC50 in experiment [1] and in experiment [2] were 245 µM and 206 µM, respectively.
With H-ACWWAGIKQEF-NH2, the IC50 is 95 µM in experiment [1] and 56 µM in experiment [2].
In the same order, the values of H-ACWWAGIRQEF-NH2 are over 333 µM and over 333 µM.
For H-ASWWAGIKQEF-NH2, in that order: 294 µM and 163 µM.
On to H-EEHEKYHSNW-NH2, for which the concentration for half-maximal inhibition (IC50) in experiment [1] and in experiment [2] was over 2000 µM in each case.
Take H-ESMNKELKKI-NH2: the IC50 in experiment [1] and in experiment [2] was over 2000 µM throughout.
Consider H-FGIPYNPQSQ-NH2, for which the 50% inhibitory concentration (IC50) in experiment [1] and in experiment [2] was over 1000 µM in each case.
H-FIHNFKRK-NH2: the IC50 in experiment [1] and in experiment [2] was over 2000 µM throughout.
For the molecule H-GRWPVKT-NH2, the IC50 in experiment [1] and in experiment [2] was over 2000 µM in each case.
With H-GYSAGERIVD-NH2, the half-inhibitory concentration (IC50) in experiment [1] and in experiment [2] was over 2000 µM throughout.
Turning to H-HTDNGSNF-NH2, the half-maximal inhibitory concentration (IC50) in experiment [1] and in experiment [2] was over 2000 µM throughout.
Consider H-IKQEF-NH2, for which the concentration for half-maximal inhibition (IC50) in experiment [1] and in experiment [2] was over 100 µM throughout.
As for H-KLAGRW-NH2, the IC50 in experiment [1] and in experiment [2] was over 100 µM throughout.
Turning to H-PAETGQET-NH2, the IC50 in experiment [1] and in experiment [2] was over 2000 µM each time.
Consider H-TAAFLLKLAGRW-OH, for which the concentration for half-maximal inhibition (IC50) in experiment [1] stood at 193 µM; in experiment [2], 119 µM.
For H-TASFLLKLAGRW-NH2, in that order: 186 µM and 11 µM.
For H-TAYALLKLAGRW-OH, in that order: over 333 µM and over 333 µM.
For H-TAYFALKLAGRW-OH, in that order: 115 µM and 51 µM.
In the case of H-TAYFLAKLAGRW-OH, the IC50 in experiment [1] and in experiment [2] was over 333 µM in each case.
Take H-TAYFLL-NH2: the IC50 in experiment [1] and in experiment [2] was 500 µM in each case.
With H-TAYFLLALAGRW-OH, the IC50 in experiment [1] is 113 µM; in experiment [2] it was 56 µM.
For H-TAYFLLILAGRW-NH2, in that order: 4.1 µM and 3 µM.
For the molecule H-TAYFLLKAAGRW-OH, the IC50 in experiment [1] was over 333 µM; in experiment [2], 106 µM.
On to H-TAYFLLKLAGAW-OH, for which the IC50 stood at 83 µM in experiment [1] and 80 µM in experiment [2].
As for H-TAYFLLKLAGRA-OH, the half-maximal inhibitory concentration (IC50) in experiment [1] and in experiment [2] was over 333 µM in each case.
Regarding H-TAYFLLKLAGRL-NH2, the IC50 in experiment [1] was 315 µM; in experiment [2], 38 µM.
H-VHVASGY-NH2: the 50% inhibitory concentration (IC50) in experiment [1] and in experiment [2] was over 2000 µM each time.
On to H-VPRRKAKI-NH2, for which the IC50 in experiment [1] and in experiment [2] was over 1000 µM each time.
H-VRDQAEHLKT-NH2: the half-maximal inhibitory concentration (IC50) in experiment [1] and in experiment [2] was over 2000 µM each time.
With H-WAGIKQ-NH2, the IC50 in experiment [1] and in experiment [2] was over 100 µM each time.
For H-WKGPAKLLWK-NH2, the half-inhibitory concentration (IC50) in experiment [1] and in experiment [2] was over 1000 µM each time.
With H-YFLLKL-NH2, the IC50 in experiment [1] and in experiment [2] was 20 µM each time.
